Consider eleven compounds from ChEMBL document CHEMBL1129502, “Betulinic acid and dihydrobetulinic acid derivatives as potent anti-HIV agents” (J Med Chem, 1996).

One data set concerns H9. The data set is described as follows: Inhibitory activity […] in mock infected H9 cells. The data set is classed as functional, cell-based. To be noted: Homo sapiens.
Data set [1] concerns Human immunodeficiency virus 1. The experiment in a line: Inhibitory activity against HIV-1-induced syncytia determined by fusion assay. The class given is functional.
Data set [2] can be described thus: Concentration inhibiting HIV-1 replication by 50% in infected H9 lymphocyte cells. To be noted: human, HIV-1-infected H9 lymphocyte cells.
Data set [3] concerns HIV-1 reverse transcriptase (Human immunodeficiency virus 1). The experiment in a line: Inhibitory activity against HIV-RT; no inhibition.
In data set [4] the test system is Human immunodeficiency virus 1. The data set is described as follows: full Inhibitory activity against HIV-1-induced syncytia. The class given is functional.

One may read the IC50 as the concentration that gives 50% inhibition. A low value points to inhibition by little substance. Usually EC50 stands for the concentration giving half of the maximal effect. Low values mean greater potency, high ones weaker potency.

SMILES strings stand for the structures.

In turn, `C=C(C)[C@@H]1CC[C@]2(C(=O)O)CC[C@]3(C)[C@H](CC[C@@H]4[C@@]5(C)CC[C@H](OC(=O)COCC(=O)O)C(C)(C)[C@@H]5CC[C@]43C)[C@@H]12` registered an IC50 in the data set on H9 of 11.7 µM. For the same compound, the IC100 in data set [1] was found to be 70 µM. The compound also registered an EC50 in data set [2] of 0.01 µM.
In the data set with H9, `CC(C)[C@@H]1CC[C@]2(C(=O)O)CC[C@]3(C)[C@H](CC[C@@H]4[C@@]5(C)CC[C@H](OC(=O)CC(C)(C)C(=O)O)C(C)(C)[C@@H]5CC[C@]43C)[C@@H]12` gave an IC50 of 4.9 µM. Moreover, in data set [1], the IC100 was determined as 34 µM. Also, in data set [2], the EC50 is below 3.5 µM.
`CC(C)[C@@H]1CC[C@]2(C(=O)O)CC[C@]3(C)[C@H](CC[C@@H]4[C@@]5(C)CC[C@H](OC(=O)C(C)(C)CC(=O)O)C(C)(C)[C@@H]5CC[C@]43C)[C@@H]12` returned an IC50 in the data set with H9 of 7.7 µM. For the same compound, a half-maximal effect in data set [2] (EC50) was put at 0.56 µM.
In the data set with H9, `CC(C)[C@@H]1CC[C@]2(C(=O)O)CC[C@]3(C)[C@H](CC[C@@H]4[C@@]5(C)CC[C@H](OC(=O)COCC(=O)O)C(C)(C)[C@@H]5CC[C@]43C)[C@@H]12` gave an IC50 of 13.1 µM. The IC100 in data set [1] came to 70 µM. For the same compound, the EC50 in data set [2] was determined as 5.6 µM.
On the same counts, the results for `C=C(C)[C@@H]1CC[C@]2(C(=O)O)CC[C@]3(C)[C@H](CC[C@@H]4[C@@]5(C)CC[C@H](OC(=O)CC(C)(C)CC(=O)O)C(C)(C)[C@@H]5CC[C@]43C)[C@@H]12` are 4.5 µM, 50 µM and 2.3 µM.
The compound `CC(C)[C@@H]1CC[C@]2(C(=O)O)CC[C@]3(C)[C@H](CC[C@@H]4[C@@]5(C)CC[C@H](OC(=O)CC(C)(C)CC(=O)O)C(C)(C)[C@@H]5CC[C@]43C)[C@@H]12` displayed an IC50 in the data set on H9 of 5.8 µM. In addition, the IC100 in data set [1] amounted to 33 µM. In data set [2], this compound returned an EC50 of 5.7 µM.
`C=C(C)[C@@H]1CC[C@]2(C(=O)O)CC[C@]3(C)[C@H](CC[C@@H]4[C@@]5(C)CC[C@H](OC(=O)C(C)(C)CC(=O)O)C(C)(C)[C@@H]5CC[C@]43C)[C@@H]12` gave an IC50 with H9 of 15.9 µM. Also, in data set [1], the IC100 was 34 µM. Besides, in data set [2], the EC50 worked out at 2.7 µM.
With `C=C(C)[C@@H]1CC[C@]2(C(=O)NCCCCCCCC(=O)N[C@@H](CC(C)C)[C@@H](O)CC(=O)O)CC[C@]3(C)[C@H](CC[C@@H]4[C@@]5(C)CC[C@H](O)C(C)(C)[C@@H]5CC[C@]43C)[C@@H]12`, the IC50 in the data set on H9 was 2.7 µM; in data set [3], “Not Active”. Moreover, the IC100 in data set [4] was 3 µM. In data set [2], this compound came in with an EC50 of 0.03 µM.
In turn, `C=C(C)[C@@H]1CC[C@]2(C(=O)O)CC[C@]3(C)[C@H](CC[C@@H]4[C@@]5(C)CC[C@H](O)C(C)(C)[C@@H]5CC[C@]43C)[C@@H]12` [BETULINIC ACID] showed an IC50 in the data set with H9 of 13 µM. In data set [1], this compound returned an IC100 above 219 µM. This compound registered an EC50 in data set [2] of 1.4 µM.
Regarding `C=C(C)[C@@H]1CC[C@]2(C(=O)O)CC[C@]3(C)[C@H](CC[C@@H]4[C@@]5(C)CC[C@H](OC(=O)CC(C)(C)C(=O)O)C(C)(C)[C@@H]5CC[C@]43C)[C@@H]12` [BEVIRIMAT], the IC50 in the data set on H9 amounted to 7 µM. The same compound showed an IC100 in data set [1] of 34 µM. Moreover, in data set [2], the concentration for a half-maximal effect (EC50) is below 3.5 µM.
In the case of `CC(C)[C@@H]1CC[C@]2(C(=O)O)CC[C@]3(C)[C@H](CC[C@@H]4[C@@]5(C)CC[C@H](O)C(C)(C)[C@@H]5CC[C@]43C)[C@@H]12` [DIHYDROBETULINIC ACID], in the data set with H9, the IC50 is 12.6 µM. In data set [4], this compound came in with an IC100 above 218 µM. Moreover, the EC50 in data set [2] amounted to 0.9 µM.
